The record followed here is US20240383898A1, “PYRIDO RING COMPOUND, PREPARATION METHOD THEREFOR, INTERMEDIATE, COMPOSITION, AND APPLICATION” (YIYOU BIOTECH (SHANGHAI) CO., LTD, priority 2021, published 2024).

For one test, the target named is T1, JAK1 (Homo sapiens, UniProt P23458).
T1 construct: purchased Carna 08-114
In words: In vitro activity test of JAK1 kinase (Caliper EZ Reader conversion assay). The class given is biochemical. The settings on record: enzyme activity, 10 concentrations from 1000 nM, 3-fold dilution. Put shortly:
(§1)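 JAK1 or JAK2 pre-incubated with compound (top 1000 nM, 3-fold, 10 points, duplicate) for 10 min at room temperature, then ATP plus substrate added. Substrate conversion read by mobility-shift on Caliper EZ Reader after stop solution. Inhibition normalized to no-enzyme and DMSO controls; IC50 from variable-slope four-parameter fit.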

Another test deals with T2, JAK2 (Homo sapiens, UniProt O60674).
T2 construct: purchased Carna 08-045
T2 sequence (O60674 whole entry, species assumed): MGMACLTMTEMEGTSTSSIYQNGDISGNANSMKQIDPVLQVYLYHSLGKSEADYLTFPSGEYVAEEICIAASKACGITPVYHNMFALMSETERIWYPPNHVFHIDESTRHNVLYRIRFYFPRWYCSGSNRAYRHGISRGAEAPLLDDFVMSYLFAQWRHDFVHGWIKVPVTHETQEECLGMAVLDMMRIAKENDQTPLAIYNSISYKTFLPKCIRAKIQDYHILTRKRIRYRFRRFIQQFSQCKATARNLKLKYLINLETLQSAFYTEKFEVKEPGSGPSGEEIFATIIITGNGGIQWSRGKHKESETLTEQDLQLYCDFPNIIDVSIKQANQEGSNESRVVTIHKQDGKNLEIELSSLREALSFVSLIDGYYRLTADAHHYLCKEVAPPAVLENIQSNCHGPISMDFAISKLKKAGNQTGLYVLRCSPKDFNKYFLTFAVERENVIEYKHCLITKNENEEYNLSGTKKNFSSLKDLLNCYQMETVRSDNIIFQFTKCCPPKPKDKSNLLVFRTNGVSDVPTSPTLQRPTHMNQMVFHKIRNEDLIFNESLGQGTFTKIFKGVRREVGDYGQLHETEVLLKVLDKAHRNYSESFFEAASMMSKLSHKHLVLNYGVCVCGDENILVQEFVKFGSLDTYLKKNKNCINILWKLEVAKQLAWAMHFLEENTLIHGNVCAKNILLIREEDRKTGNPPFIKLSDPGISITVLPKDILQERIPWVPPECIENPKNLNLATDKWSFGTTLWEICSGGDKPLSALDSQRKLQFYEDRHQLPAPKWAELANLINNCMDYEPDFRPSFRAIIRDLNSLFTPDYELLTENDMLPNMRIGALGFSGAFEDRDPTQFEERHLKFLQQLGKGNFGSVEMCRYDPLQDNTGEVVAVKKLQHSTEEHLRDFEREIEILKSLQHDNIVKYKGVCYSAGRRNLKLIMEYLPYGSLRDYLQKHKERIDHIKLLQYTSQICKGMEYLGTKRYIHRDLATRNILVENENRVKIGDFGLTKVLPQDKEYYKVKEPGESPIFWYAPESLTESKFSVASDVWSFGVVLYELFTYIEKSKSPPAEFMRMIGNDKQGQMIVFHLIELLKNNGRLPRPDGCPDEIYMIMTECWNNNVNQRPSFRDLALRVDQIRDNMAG
In words: In vitro activity test of JAK2 kinase (Caliper EZ Reader conversion assay). The following applies: enzyme activity, 10 concentrations from 1000 nM, 3-fold dilution. It is filed as biochemical. Put shortly:
as §1

Bounds are passed on as bounds.

T1 sequence (P23458 whole entry, species assumed): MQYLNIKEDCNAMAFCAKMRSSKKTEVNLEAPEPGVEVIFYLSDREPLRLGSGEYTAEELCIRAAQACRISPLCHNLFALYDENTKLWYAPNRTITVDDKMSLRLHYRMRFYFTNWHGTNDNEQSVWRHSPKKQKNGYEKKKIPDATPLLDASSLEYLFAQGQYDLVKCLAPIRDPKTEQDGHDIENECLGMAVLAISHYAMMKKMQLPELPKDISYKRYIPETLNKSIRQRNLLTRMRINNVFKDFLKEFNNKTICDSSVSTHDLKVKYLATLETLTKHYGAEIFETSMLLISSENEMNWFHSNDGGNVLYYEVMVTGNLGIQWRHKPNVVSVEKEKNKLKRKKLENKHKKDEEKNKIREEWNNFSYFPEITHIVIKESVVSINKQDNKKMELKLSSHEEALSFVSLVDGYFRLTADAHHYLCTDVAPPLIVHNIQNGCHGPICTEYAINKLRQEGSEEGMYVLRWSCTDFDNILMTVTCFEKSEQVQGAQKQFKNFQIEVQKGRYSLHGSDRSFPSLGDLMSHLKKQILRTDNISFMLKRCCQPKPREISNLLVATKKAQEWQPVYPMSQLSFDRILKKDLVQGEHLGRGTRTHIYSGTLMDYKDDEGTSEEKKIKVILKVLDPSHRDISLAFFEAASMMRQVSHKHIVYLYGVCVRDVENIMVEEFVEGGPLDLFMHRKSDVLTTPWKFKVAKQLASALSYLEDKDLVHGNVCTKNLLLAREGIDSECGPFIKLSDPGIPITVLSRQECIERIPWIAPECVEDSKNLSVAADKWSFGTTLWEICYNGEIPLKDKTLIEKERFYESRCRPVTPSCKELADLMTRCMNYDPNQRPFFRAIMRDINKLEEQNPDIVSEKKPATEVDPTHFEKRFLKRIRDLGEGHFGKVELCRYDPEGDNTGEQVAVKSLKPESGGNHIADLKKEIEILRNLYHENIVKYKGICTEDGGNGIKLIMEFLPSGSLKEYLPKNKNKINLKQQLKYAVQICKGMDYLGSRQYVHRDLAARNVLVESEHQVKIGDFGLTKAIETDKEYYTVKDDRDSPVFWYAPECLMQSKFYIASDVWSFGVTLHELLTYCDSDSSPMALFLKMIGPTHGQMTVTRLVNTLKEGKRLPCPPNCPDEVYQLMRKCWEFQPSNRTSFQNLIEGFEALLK

In general, IC50 refers to the concentration needed to halve the response being measured. A high value points to lower potency. For `CS(=O)(=O)c1ccc(C2Nc3cnc4[nH]ccc4c3N2c2ccc(C#N)cc2)cc1` (centres unmarked) [LXS57, 4-(2-(4-(Methylsulfonyl)phenyl)-2,3-dihydroimidazo[4,5-d]pyrrolo[2,3-b]pyridin-1(6H)-yl)benzonitrile], the IC50 against JAK1 and on JAK2 was 100 to 1000 nM each time.
On to `C[C@@H](O)c1nc2cnc3[nH]ccc3c2n1[C@H]1C[C@@H](CO)N(CCCC(F)(F)F)C1` [LXS89, (R)-1-(1-((3S,5S)-5-(hydroxymethyl)-1-(4,4,4-trifluorobutyl)pyrrolidin-3-yl)-1,6-dihydroimidazo[4,5-d]pyrrolo[2,3-b]pyridin-2-yl)ethan-1-ol], for which the IC50 at JAK1 was 10 to 100 nM; on JAK2, 100 to 1000 nM.
For `CC(C(=O)NCC(F)(F)F)N1CC[C@H](n2c([C@@H](C)O)nc3cnc4[nH]ccc4c32)C1` (stereo partly drawn) [LXS75, 2-((S)-3-(2-((R)-1-Hydroxyethyl)imidazo[4,5-d]pyrrolo[2,3-b]pyridin-1(6H)-yl)pyrrolidin-1-yl)-N-(2,2,2-trifluoroethyl)propanamide], the figures for the IC50 against JAK1 and on JAK2 were under 10 nM and 100 to 1000 nM, respectively.
As for `C=CC(=O)N1CCC(n2c(-c3ccc(O)cc3O)nc3cnc4[nH]ccc4c32)C1` (centres unmarked) [LXS33, 1-(3-(2-(2,4-Dihydroxyphenyl)imidazo[4,5-d]pyrrolo[2,3-b]pyridin-1(6H)-yl)pyrrolidin-1-yl)prop-2-en-1-one], the IC50 on JAK1 and at JAK2 was 10 to 100 nM each time.
For the compound `C[C@@H](O)c1nc2cnc3[nH]ccc3c2n1[C@@H]1CN(CCCC(F)(F)F)C[C@H]1F` [LXS87, (R)-1-(1-((3R,4R)-4-fluoro-1-(4,4,4-trifluorobutyl)pyrrolidin-3-yl)-1,6-dihydroimidazo[4,5-d]pyrrolo[2,3-b]pyridin-2-yl)ethan-1-ol], the figures for the IC50 against JAK1 and on JAK2 were under 10 nM and 100 to 1000 nM, respectively.
In the same order, the values of `N#CCN1CCC(n2c(-c3ccc(CO)o3)nc3cnc4[nH]ccc4c32)C1` (centres unmarked) [LXS52, 2-(3-(2-(5-(hydroxymethyl)furan-2-yl)imidazo[4,5-d]pyrrolo[2,3-b]pyridin-1(6H)-yl)pyrrolidin-1-yl)acetonitrile] are 100 to 1000 nM and 10 to 100 nM.
Turning to `CCCS(=O)(=O)N1CCC(n2c(-c3ccccc3O)nc3cnc4[nH]ccc4c32)C1` (centres unmarked) [LXS30, 2-(1-(1-(propylsulfonyl)pyrrolidin-3-yl)-1,6-dihydroimidazo[4,5-d]pyrrolo[2,3-b]pyridin-2-yl)phenol], the IC50 at JAK1 and against JAK2 was 100 to 1000 nM throughout.
Consider `N#CCCn1cc(-n2c(C(F)(F)F)nc3cnc4[nH]ccc4c32)cn1` [LXS64, 3-(4-(2-(Trifluoromethyl)imidazo[4,5-d]pyrrolo[2,3-b]pyridin-1(6H)-yl)-1H-pyrazol-1-yl)propanenitrile], for which the IC50 was 100 to 1000 nM at JAK1 and under 10 nM on JAK2.
On to `C[C@@H](O)c1nc2cnc3[nH]ccc3c2n1[C@H]1CCN(CCC#N)C1` [LXS59, 3-((S)-3-(2-((R)-1-hydroxyethyl)imidazo[4,5-d]pyrrolo[2,3-b]pyridin-1(6H)-yl)pyrrolidin-1-yl)propanenitrile], for which the IC50 lay within 10 to 100 nM at JAK1 and 100 to 1000 nM on JAK2.
In the same order, the values of `CSc1ccc(-c2nc3cnc4[nH]ccc4c3n2C2CCC(C#N)CC2)cc1` (stereo in doubt) [LXS42, trans-4-(2-(4-(Methylthio)phenyl)imidazo[4,5-d]pyrrolo[2,3-b]pyridin-1(6H)-yl)cyclohexanecarbonitrile] are 100 to 1000 nM and 100 to 1000 nM.
`C[C@@H](O)c1nc2cnc3[nH]ccc3c2n1[C@H]1CCN(CC(F)(F)C(F)(F)C(F)(F)F)C1` [LXS100, (R)-1-(1-((S)-1-(2,2,3,3,4,4,4-Heptafluorobutyl)pyrrolidin-3-yl)imidazo[4,5-d]pyrrolo[2,3-b]pyridin-2-yl)ethanol]: the 50% inhibitory concentration (IC50) against JAK1 is under 10 nM; against JAK2, 100 to 1000 nM.
With `N#C[C@H]1CC[C@H](n2c(-c3ccc(CO)o3)nc3cnc4[nH]ccc4c32)CC1` (stereo in doubt) [LXS22, trans-4-(2-(5-(hydroxymethyl)furan-2-yl)imidazo[4,5-d]pyrrolo[2,3-b]pyridin-1(6H)-yl)cyclohexanecarbonitrile], the 50% inhibitory concentration (IC50) against JAK1 and against JAK2 was 10 to 100 nM throughout.
For the compound `C[C@@H](O)c1nc2cnc3[nH]ccc3c2n1C1CCN(C(=O)C2(C#N)CC2)C1` (stereo partly drawn) [LXS61, 1-(3-(2-((R)-1-Hydroxyethyl)imidazo[4,5-d]pyrrolo[2,3-b]pyridin-1(6H)-yl)pyrrolidin-1-carbonyl)cyclopropanecarbonitrile], the IC50 on JAK1 and on JAK2 was 100 to 1000 nM throughout.
As to `N#C[C@H]1CC[C@H](n2c(-c3ccc(O)cc3F)nc3cnc4[nH]ccc4c32)CC1` (stereo in doubt) [LXS39, trans-4-(2-(2-Fluoro-4-hydroxyphenyl)imidazo[4,5-d]pyrrolo[2,3-b]pyridin-1(6H)-yl)cyclohexanecarbonitrile], the half-maximal inhibitory concentration (IC50) at JAK1 fell in the range of 10 to 100 nM; at JAK2, 100 to 1000 nM.
In the case of `Cc1ccc(-c2nc3cnc4[nH]ccc4c3n2C2CCC(C#N)CC2)o1` (stereo in doubt) [LXS29, trans-4-(2-(2-Methylfuran-5-yl)imidazo[4,5-d]pyrrolo[2,3-b]pyridin-1(6H)-yl)cyclohexanecarbonitrile], the IC50 at JAK1 and on JAK2 was 10 to 100 nM each time.
On to `C[C@@H](O)c1nc2cnc3[nH]ccc3c2n1[C@@H]1CN(CCCC(F)(F)F)CC12CC2` [LXS70, (R)-1-(1-((S)-5-(4,4,4-Trifluorobutyl)-5-azaspiro[2,4]hept-7-yl)-1,6-dihydroimidazo[4,5-d]pyrrolo[2,3-b]pyridin-2-yl)ethanol], for which the IC50 on JAK1 and at JAK2 was 10 to 100 nM each time.
`CS(=O)(=O)c1ccc(C2Nc3cnc4[nH]ccc4c3N2C2CCN(CCC#N)C2)cc1` (centres unmarked) [LXS60, 3-(3-(2-(4-(Methylsulfonyl)phenyl)-2,3-dihydroimidazo[4,5-d]pyrrolo[2,3-b]pyridin-1(6H)-yl)pyrrolidin-1-yl)propanenitrile]: the IC50 on JAK1 and against JAK2 was 10 to 100 nM each time.
For the compound `N#Cc1ccc(-n2c(-c3ccc(CO)o3)nc3cnc4[nH]ccc4c32)cc1` [LXS55, 4-(2-(5-(Hydroxymethyl)furan-2-yl)imidazo[4,5-d]pyrrolo[2,3-b]pyridin-1(6H)-yl)benzonitrile], the IC50 at JAK1 and against JAK2 was 100 to 1000 nM each time.
With `N#CCCN1CCC(n2c(-c3ccc(CO)o3)nc3cnc4[nH]ccc4c32)C1` (centres unmarked) [LXS51, 3-(3-(2-(5-(Hydroxymethyl)furan-2-yl)imidazo[4,5-d]pyrrolo[2,3-b]pyridin-1(6H)-yl)pyrrolidin-1-yl)propanenitrile], the IC50 at JAK1 and against JAK2 was 10 to 100 nM each time.
As for `N#CCCn1cc(-n2c(-c3ccc(CO)o3)nc3cnc4[nH]ccc4c32)cn1` [LXS46, 3-(4-(2-(5-(Hydroxymethyl)furan-2-yl)imidazo[4,5-d]pyrrolo[2,3-b]pyridin-1(6H)-yl)-1H-pyrazol-1-yl)propanenitrile], the 50% inhibitory concentration (IC50) on JAK1 was 10 to 100 nM; on JAK2 it was under 10 nM.
For the compound `COc1ccc(-c2nc3cnc4[nH]ccc4c3n2C2CCC(C#N)CC2)c(O)c1` (stereo in doubt) [LXS41, trans-4-(2-(2-Hydroxy-4-methoxyphenyl)imidazo[4,5-d]pyrrolo[2,3-b]pyridin-1(6H)-yl)cyclohexanecarbonitrile], the IC50 against JAK1 and on JAK2 was 100 to 1000 nM throughout.
Turning to `N#C[C@H]1CC[C@H](n2c(-c3ccc(C(F)(F)F)cc3)nc3cnc4[nH]ccc4c32)CC1` (stereo in doubt) [LXS37, trans-4-(2-(4-(Trifluoromethyl)phenyl)imidazo[4,5-d]pyrrolo[2,3-b]pyridin-1(6H)-yl)cyclohexanecarbonitrile], the IC50 against JAK1 and at JAK2 was 100 to 1000 nM in each case.
`C[C@@H](O)c1nc2cnc3[nH]ccc3c2n1C1CCN(S(=O)(=O)c2ccc(OC(F)(F)F)cc2)C1` (stereo partly drawn) [LXS11, (1R)-1-(1-(1-((4-(trifluoromethoxy)phenyl)sulfonyl)pyrrolidin-3-yl)-1,6-dihydroimidazo[4,5-d]pyrrolo[2,3-b]pyridin-2-yl)ethan-1-ol]: the IC50 at JAK1 lay within 10 to 100 nM; on JAK2, 100 to 1000 nM.
In the same order, the values of `CCCCS(=O)(=O)N1CC(CC#N)(n2cc(-n3c(-c4ccc(CO)o4)nc4cnc5[nH]ccc5c43)cn2)C1` [LXS15, 2-(1-(butylsulfonyl)-3-(4-(2-(5-(hydroxymethyl)furan-2-yl)imidazo[4,5-d]pyrrolo[2,3-b]pyridin-1(6H)-yl)-1H-pyrazol-1-yl)azetidin-3-yl)acetonitrile] are 100 to 1000 nM and 10 to 100 nM.
With `C[C@@H](O)c1nc2cnc3[nH]ccc3c2n1C1CCN(S(=O)(=O)c2ccc(-c3ccccc3)cc2)C1` (stereo partly drawn) [LXS09, (1R)-1-(1-(1-([1,1′-biphenyl]-4-ylsulfonyl)pyrrolidin-3-yl)-1,6-dihydroimidazo[4,5-d]pyrrolo[2,3-b]pyridin-2-yl)ethan-1-ol], the IC50 was 100 to 1000 nM against JAK1 and over 1000 nM against JAK2.
For `C[C@@H](O)c1nc2cnc3[nH]ccc3c2n1C1CCN(S(=O)(=O)c2ccc3ccccc3c2)C1` (stereo partly drawn) [LXS10, (1R)-1-(1-(1-(naphthalen-2-ylsulfonyl)pyrrolidin-3-yl)-1,6-dihydroimidazo[4,5-d]pyrrolo[2,3-b]pyridin-2-yl)ethan-1-ol], the IC50 was 100 to 1000 nM against JAK1 and over 1000 nM against JAK2.
In the same order, the values of `Cc1ccc(S(=O)(=O)N2CCC(n3c([C@@H](C)O)nc4cnc5[nH]ccc5c43)C2)cc1` (stereo partly drawn) [LXS08, (1R)-1-(1-(1-tosylpyrrolidin-3-yl)-1,6-dihydroimidazo[4,5-d]pyrrolo[2,3-b]pyridin-2-yl)ethan-1-ol] are 100 to 1000 nM and 100 to 1000 nM.
In the same order, the values of `C[C@@H](O)c1nc2cnc3[nH]ncc3c2n1[C@H]1C[C@@H](CO)N(CCCC#N)C1` [LXS94, 4-((2S,4S)-4-(2-((R)-1-Hydroxyethyl)imidazo[4,5-d]pyrazolo[3,4-b]pyridin-1(6H)-yl)-2-(hydroxymethyl)pyrrolidin-1-yl)butanenitrile] are 10 to 100 nM and 100 to 1000 nM.
